Experimental data as given in patent publication US11339171B2, “MDM2 inhibitors” (Gan & Lee Pharmaceuticals, priority 2017, dated 2022).

Assays:
[1] = test system: human osteosarcoma cell line SJSA-1; assay: Inhibition of proliferation of human osteosarcoma cell line SJSA-1 (DAPI staining, In Cell Analyzer); conditions: Homo sapiens, SJSA-1, 72 h, read-out: IC50 (nM), inhibitory activity on proliferation of human osteosarcoma cell line SJSA-1, SJSA-1, incubated 72 h
MDM2 = molecular target: T1, MDM2 (Homo sapiens, UniProt Q00987); assay: Inhibition test of MDM2-P53 (GST-MDM2, Biotin-P53, Anti-GST-Tb, SA-XL665); format: binding
T1 construct: made in house
In short: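 HTRF-type assay using 4 nM GST-MDM2 (final), Biotin-P53, SA-XL665 and anti-GST-Tb in PBS with 0.1% BSA, 5 mM DTT and 1 mM AEBSF. Compounds in 5-fold serial dilutions over twelve points; incubation 90 min at 25° C with shaking before plate-reader read-out.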

T1 sequence (Q00987 whole entry): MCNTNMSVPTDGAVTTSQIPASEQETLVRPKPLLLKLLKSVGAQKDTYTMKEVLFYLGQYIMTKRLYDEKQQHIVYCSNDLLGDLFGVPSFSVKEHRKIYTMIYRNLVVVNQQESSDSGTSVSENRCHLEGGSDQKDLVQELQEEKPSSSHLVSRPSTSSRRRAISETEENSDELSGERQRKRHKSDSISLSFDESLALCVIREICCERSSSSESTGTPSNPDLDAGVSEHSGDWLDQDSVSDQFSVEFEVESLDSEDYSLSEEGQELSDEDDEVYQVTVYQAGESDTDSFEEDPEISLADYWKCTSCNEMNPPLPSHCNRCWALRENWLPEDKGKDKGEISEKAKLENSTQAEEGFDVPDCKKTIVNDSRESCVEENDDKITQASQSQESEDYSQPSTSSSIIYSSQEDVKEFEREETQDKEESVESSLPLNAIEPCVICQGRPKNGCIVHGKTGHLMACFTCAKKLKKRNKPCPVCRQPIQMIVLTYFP

| Compound | IC50 [1] [nM] | IC50 (MDM2) [nM] |
| --- | --- | --- |
| COc1cc(N(C)C)ncc1-c1nc2c(n1C(C)C)[C@]1(C(=O)Nc3cc(Cl)ccc31)N(c1cccc(Cl)c1)C2=O [Example R-113, (R)-6-chloro-5′-(3-chlorophenyl)-2′-(6-(dimethylamino)-4-methoxypyridin-3-yl)-3′-isopropyl-3′H-spiro[dihydroindole-3,4′-pyrrolo[3,4-d]imidazole]-2,6′(5′H)-dione] | 2170 | 50.5 |
| COc1cc(OC)c(-c2nc3c(n2C(C)C)[C@]2(C(=O)Nc4cc(Cl)ccc42)N(c2cccc(Cl)c2)C3=O)cn1 [Example R-115, (R)-6-chloro-5′-(3-chlorophenyl)-2′-(4,6-dimethoxypyridin-3-yl)-3′-isopropyl-3′H-spiro[dihydroindole-3,4′-pyrrolo[3,4-d]imidazole]-2,6′(5′H)-dione] | 26.9 | 269 |
| COc1nc(OC(C)C)ncc1-c1nc2c(n1C(C)C)[C@]1(C(=O)Nc3cc(Cl)ccc31)N(c1cc(Cl)ccc1C)C2=O [Example R-126, (R)-6-chloro-5′-(5-chloro-2-methylphenyl)-2′-(2-isopropoxy-4-methoxypyrimidin-5-yl)-3′-isopropyl-3′H-spiro[dihydroindole-3,4′-pyrrolo[3,4-d]imidazole]-2,6′(5′H)-dione] | 1590 | 193 |
| CCOc1ncc(-c2nc3c(n2C(C)C)[C@]2(C(=O)Nc4cc(Cl)ccc42)N(c2cc(Cl)ccc2C)C3=O)c(OC)n1 [Example R-127, (R)-6-chloro-5′-(5-chloro-2-methylphenyl)-2′-(2-ethoxy-4-methoxypyrimidin-5-yl)-3′-isopropyl-3′H-spiro[dihydroindole-3,4′-pyrrolo[3,4-d]imidazole]-2,6′(5′H)-dione] | 1570 | 91 |
| COc1nc(OCCF)ncc1-c1nc2c(n1C(C)C)[C@]1(C(=O)Nc3cc(Cl)ccc31)N(c1cc(Cl)ccc1C)C2=O [Example R-140, (R)-6-chloro-5′-(5-chloro-2-methylphenyl)-2′-(2-(2-fluoroethoxy)-4-methoxypyrimidin-5-yl)-3′-isopropyl-3′H-spiro[dihydroindole-3,4′-pyrrolo[3,4-d]imidazole]-2,6′(5′H)-dione] | 863 | 147 |
| COc1cc(C2CC2)ncc1-c1nc2c(n1C(C)C)[C@]1(C(=O)Nc3cc(Cl)ccc31)N(c1cc(Cl)cnc1C)C2=O [Example R-143, (R)-6-chloro-5′-(5-chloro-2-methylpyridin-3-yl)-2′-(6-cyclopropyl-4-methoxypyridin-3-yl)-3′-isopropyl-3′H-spiro[dihydroindole-3,4′-pyrrolo[3,4-d]imidazole]-2,6′(5′H)-dione] | 6220 | 214 |
| COc1cc(C(F)(F)F)ccc1-c1nc2c(n1C(C)C)[C@]1(C(=O)Nc3cc(Cl)ccc31)N(c1cc(Cl)cnc1C)C2=O [Example R-144, (R)-6-chloro-5′-(5-chloro-2-methylpyridin-3-yl)-3′-isopropyl-2′-(2-methoxy-4-(trifluoromethyl)phenyl)-3′H-spiro[dihydroindole-3,4′-pyrrolo[3,4-d]imidazole]-2,6′(5′H)-dione] | 2450 | 119 |
| COc1nc(OCC(F)F)ncc1-c1nc2c(n1C(C)C)[C@]1(C(=O)Nc3cc(Cl)ccc31)N(c1cc(Cl)ccc1C)C2=O [Example R-147, (R)-6-chloro-5′-(5-chloro-2-methylphenyl)-2′-(2-(2,2-difluoroethoxy)-4-methoxypyrimidin-5-yl)-3′-isopropyl-3′H-spiro[dihydroindole-3,4′-pyrrolo[3,4-d]imidazole]-2,6′(5′H)-dione] | 5740 | 119 |
| COc1cc(OC(F)F)ncc1-c1nc2c(n1C(C)C)[C@]1(C(=O)Nc3cc(Cl)ccc31)N(c1cc(Cl)ccc1C)C2=O [Example R-150, (R)-6-chloro-5′-(5-chloro-2-methylphenyl)-2′-(6-(difluoromethoxy)-4-methoxypyridin-3-yl)-3′-isopropyl-3′H-spiro[dihydroindole-3,4′-pyrrolo[3,4-d]imidazole]-2,6′(5′H)-dione] | 5700 | 377 |
| COc1cc(N(C)C)ncc1-c1nc2c(n1C(C)C)[C@]1(C(=O)Nc3cc(Cl)ccc31)N(c1cc(Cl)cnc1C)C2=O [Example R-155, (R)-6-chloro-5′-(5-chloro-2-methylpyridin-3-yl)-2′-(6-(dimethylamino)-4-methoxypyridin-3-yl)-3′-isopropyl-3′H-spiro[dihydroindole-3,4′-pyrrolo[3,4-d]imidazole]-2,6′(5′H)-dione] | 1520 | 96.4 |
| COc1nc(N(C)C)ccc1-c1nc2c(n1C(C)C)[C@]1(C(=O)Nc3cc(Cl)ccc31)N(c1cc(Cl)ccc1C)C2=O [Example R-157, (R)-6-chloro-5′-(5-chloro-2-methylphenyl)-2′-(6-(dimethylamino)-2-methoxypyridin-3-yl)-3′-isopropyl-3′H-spiro[dihydroindole-3,4′-pyrrolo[3,4-d]imidazole]-2,6′(5′H)-dione] | 1800 | 370 |
| COc1nc(C2CC2)ncc1-c1nc2c(n1C(C)C)[C@]1(C(=O)Nc3cc(Cl)ccc31)N(c1cc(Cl)cnc1C)C2=O [Example R-159, (R)-6-chloro-5′-(5-chloro-2-methylpyridin-3-yl)-2′-(2-cyclopropyl-4-methoxypyrimidin-5-yl)-3′-isopropyl-3′H-spiro[dihydroindole-3,4′-pyrrolo[3,4-d]imidazole]-2,6′(5′H)-dione] | 5330 | 468 |
| COc1cc(N(C)CCO)ccc1-c1nc2c(n1C(C)C)[C@]1(C(=O)Nc3cc(Cl)ccc31)N(c1cc(Cl)ccc1C)C2=O [Example R-162, (R)-6-chloro-5′-(5-chloro-2-methylphenyl)-2′-(4-((2-hydroxyethyl)(methyl)amino)-2-methoxyphenyl)-3′-isopropyl-3′H-spiro[dihydroindole-3,4′-pyrrolo[3,4-d]imidazole]-2,6′(5′H)-dione] | 782 | 120 |
| COc1cc(OCCF)ncc1-c1nc2c(n1C(C)C)[C@]1(C(=O)Nc3cc(Cl)ccc31)N(c1cccc(Cl)c1)C2=O [Example R-177, (R)-6-chloro-5′-(3-chlorophenyl)-2′-(6-(2-fluoroethoxy)-4-methoxypyridin-3-yl)-3′-isopropyl-3′H-spiro[dihydroindole-3,4′-pyrrolo[3,4-d]imidazole]-2,6′(5′H)-dione] | 4250 | 109 |
| CCOc1ncc(-c2nc3c(n2C(C)C)[C@]2(C(=O)Nc4cc(Cl)ccc42)N(c2cc(F)cc(Cl)c2)C3=O)c(OC)n1 [Example R-180, (R)-6-chloro-5′-(3-chloro-5-fluorophenyl)-2′-(2-ethoxy-4-methoxypyrimidin-5-yl)-3′-isopropyl-3′H-spiro[dihydroindole-3,4′-pyrrolo[3,4-d]imidazole]-2,6′(5′H)-dione] | 2170 | 679 |
| COc1ncc(-c2nc3c(n2C(C)C)[C@@]2(C(=O)Nc4cc(Cl)ccc42)N(c2ccc(F)c(Cl)c2)C3=O)c(OC)n1 [Example S-3, (S)-6-chloro-5′-(3-chloro-4-fluorophenyl)-2′-(2,4-dimethoxypyrimidin-5-yl)-3′-isopropyl-3′H-spiro[dihydroindole-3,4′-pyrrolo[3,4-d]imidazole]-2,6′(5′H)-dione] | 174 | 4.92 |
